Measured values published in publication PMC10302187, “WssI from the Gram-negative bacterial cellulose synthase is an O-acetyltransferase that acts on cello-oligomers with several acetyl donor substrates” (The Journal of Biological Chemistry, 2023).

Assays:
AiWssI^ΔN [1] = target: T1, AiWssI^ΔN (Achromobacter insuavis, UniProt A0A6J5I893); assay: HTS MU-Ac fluorescence esterase dose-response assay; assay type: biochemical; conditions: MU-Ac as esterase substrate
Experimental: Large-scale HTS was conducted at the SPARC BioCentre Drug Discovery (Hospital for Sick Children, Toronto, Canada) with a subset of the Chembridge DIVERset library collection (as well as 135 manually selected compounds based on success against other SGNH enzymes) in a 384-well format. The assay was performed in singlet during the primary screen of the entire compound list and in triplicate for a follow-up confirmatory screen. Reaction setups for both screens were conducted with 50 mM sodium phosphate buffer (pH 6.5), 3 μM AiWssI^ΔN and 0.5 mM MU-Ac (final concentration of 5% [v/v] dimethyl sulfoxide) using a Thermo MultiDrop Combi Reagent Dispenser. The reaction was initiated by the addition of 20 μM of the test compounds using an Echo 550 acoustic dispenser (Labcyte). Fluorescence was monitored with a SynergyNeo microplate reader (BioTek) using excitation and emission wavelengths of 365 and 450 nm, respectively, for approximately 45 min alongside appropriate negative and positive controls. […] The hits remaining after the primary and confirmatory screening were examined further to identify possible PAINS, which could result in false-positive results ([91]). Further refinement of the lead candidates was also conducted by assessing the fluorescence quenching potential of lead compound hits by assaying the quenching potential of different compound concentrations (10.1 μM and/or 50.5 μM) against the fluorescence of 4-methylumbeliferone (247 μM) to reveal any potential false positives that were not actually because of AiWssI^ΔN activity. All fluorescence readings were normalized using the following equation to determine the percentage of quenching ([92]): NormalizedFlouresence=Fobs−μFmin/μFmax−μFminx100% In the aforementioned formula, Fobs is the sample fluorescence value, μFmin is the mean fluorescence value of the negative controls, and μFmax is the mean fluorescence value of the positive controls.
(§1) All inhibitor compounds for confirmatory assays were purchased from Enamine Ltd, with the exception of compound 1 (Santa Cruz Biotechnology, Inc), Compounds 2 and 7 (Molport via Maybridge Ltd and Vitas M Chemical Ltd, respectively) and compound 6 (Mcule, Inc). The dose–response curves were generated using either CDD Vault Analysis Software (Collaborative Drug Discovery, Inc) or GraphPad Prism, version 8.4.3. Inhibition constants (Ki) were calculated using the Cheng–Prusoff equation for competitive inhibition that is calculated using the KM of the uninhibited enzyme, the substrate concentration (S) at which the IC50 values were calculated, and the IC50 value of the inhibitor ([92]): Ki=IC50/(S/KM+1)

AiWssI^ΔN [2] = target: T1, AiWssI^ΔN; assay: Follow-up standard MU-Ac esterase assay (dose-response); assay type: biochemical; conditions: for IC50: MU-Ac (0.5 mM) as esterase substrate, read-out: Second MU-Ac IC50; for Ki: MU-Ac as esterase substrate, Cheng-Prusoff, competitive inhibition, read-out: Second MU-Ac Ki
Experimental: (§2) The fluorescence substrate, MU-Ac, was also tested as a substrate of WssI^ΔN for its amenability to the planned high-throughput analyses (see later). Reaction setups were exactly the same as that for pNP-Ac, with the exceptions of the assay buffer (50 mM sodium phosphate, 150 mM NaCl, 1 mM DTT, pH 7), MU-Ac as the acetyl donor (final concentration of 0.5 mM along with 5% [v/v] dimethyl sulfoxide, as this was the solvent for MU-Ac), and the assay was performed in fluorescence compatible microplates (Grenier BioOne) and monitored with excitation and emission wavelengths of 365 and 450 nm, respectively for 60 min.
as §1

AiWssI^ΔN [3] = target: T1, AiWssI^ΔN; assay: pNP-Ac cleavage in the presence of oligosaccharide acceptors; assay type: biochemical; conditions: 1 mM oligosaccharide, 6 mM pNP-Ac, 2 μM enzyme; for Specific activity of AiWssI^ΔN with acceptor relative to no acceptor control: t test; for Increase in AiWssI^ΔN activity versus reaction without celloacceptors: 30 min, 23 °C
Experimental: Acetyltransfer by WssI was performed under the same esterase assay protocol outlined previously, but with the addition of cellulose or chitin oligosaccharides (1 mM) as the acceptor in the presence of either pNP-Ac (6 mM) or acetyl-CoA (4 mM) as the acetyl donor ([…]). Assessment of acetyltransfer was first monitored indirectly (absorbance at 405 nm wavelength) by observing differences in pNP liberation rates in the presence and absence of the polysaccharide acceptors. Later to confirm the acetylated products, reactions performed with pNP-Ac and acceptor polysaccharides were subjected to solid-phase extraction of the carbohydrate reaction products followed by detection with MS (as outlined later). Reactions utilizing acetyl-CoA as the donor were subjected to LC–MS analyses. All model fitting and statistical analyses were performed using GraphPad Prism, version 8.4.3.

[4] = test system: CC(=O)Oc1ccc([N+](=O)[O-])cc1; assay: O-acetylesterase Michaelis-Menten kinetics; assay type: biochemical, Achromobacter insuavis; conditions: other: AiWssI^ΔN, acetyl donor substrate, pH 7
Experimental: (§3) The enzymatic rate of the WssI^ΔN proteins was measured using chromogenic assays in a 50 mM sodium phosphate-buffered (pH 7) solution, with WssI^ΔN (3 μM unless specified otherwise) and were initiated by the addition of pNP-Ac to a final concentration of 6 mM (dissolved in 5% [v/v] ethanol). Assay samples and corresponding controls (i.e., containing no WssI^ΔN and/or substrate) were run in quadruplicate, and the progress of the reaction was monitored at 405 nm (Cytation5) for 30 min in 1 min intervals following a 5 s initial linear shake to mix contents thoroughly. These conditions were deemed standard assay conditions for subsequent trials except where modifications are noted. The activity assay to determine optimal pH and buffer type was performed with 2-(N-morpholino)ethanesulfonic acid over pH ranges of 5.5 to 6.5, sodium phosphate for pH 6.5 to 7.5, and Tris for the final range of 7.5 to 9.25. In addition, standard assay conditions were modified by incorporating various inhibitors and common reducing agents to determine effects on WssI^ΔN activity. […] To test the effects of the absence of DTT, trials were conducted where DTT was removed from all purification and dialysis buffers, unless mentioned otherwise. Data are either reported in specific activity as units of esterase activity (i.e., the amount of enzyme required to release 1 μmol of p-nitrophenol per min^−1 per mg of protein^−1) or as percent residual activity when compared with the WssI^ΔN controls (i.e., containing no inhibitors).
as §2
(§4) Kinetic assays were performed using the same standard assay conditions for esterase reactions outlined previously, but with acetyl donor pNP-Ac concentrations ranging from 0 to 10 mM and MU-Ac concentrations between 0 and 8 mM. Michaelis–Menten parameters, such as KM and kcat, were calculated from the kinetic curves according to a nonlinear regression analysis of plots of initial velocity as a function of pNP-Ac or MU-Ac concentration using GraphPad Prism, version 8.4.3 (GraphPad Sofware, Inc).

[5] = test system: CC(=O)Oc1ccc2c(C)cc(=O)oc2c1; assay: O-acetylesterase Michaelis-Menten kinetics; assay type: biochemical, Achromobacter insuavis; conditions: other: AiWssI^ΔN, acetyl donor substrate, pH 7
Experimental: as §3, §2, §4

AiWssI^ΔN [6] = target: T1, AiWssI^ΔN; assay type: biochemical; conditions: 1 h incubation with reagent (1 mM PMSF, 5 mM MSF, 5 mM EDTA, 0.1 mM E-64, 20 μM Pepstatin A); 6 mM pNP-Ac, pH 7
Experimental: as §3

PfWssI^ΔN = target: T2, PfWssI^ΔN (Pseudomonas fluorescens, UniProt Q8RSY4); assay type: biochemical; conditions: 1 h incubation with reagent (1 mM PMSF, 5 mM MSF, 5 mM EDTA, 0.1 mM E-64, 20 μM Pepstatin A); 6 mM pNP-Ac, pH 7
T2 sequence (Q8RSY4 92-374): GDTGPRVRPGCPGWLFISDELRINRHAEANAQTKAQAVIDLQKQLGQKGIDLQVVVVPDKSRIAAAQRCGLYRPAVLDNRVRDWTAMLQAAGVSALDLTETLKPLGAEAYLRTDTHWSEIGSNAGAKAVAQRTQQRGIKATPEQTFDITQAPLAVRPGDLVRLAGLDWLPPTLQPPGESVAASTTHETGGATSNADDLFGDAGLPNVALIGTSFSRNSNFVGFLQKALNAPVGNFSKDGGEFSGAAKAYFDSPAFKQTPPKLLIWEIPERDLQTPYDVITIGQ
Experimental: as §3

[7] = substrate: CC(=O)Oc1ccc([N+](=O)[O-])cc1; assay: O-acetylesterase Michaelis-Menten kinetics; assay type: biochemical, Pseudomonas fluorescens; conditions: other: PfWssI^ΔN, acetyl donor substrate, pH 7
Experimental: as §3, §2, §4

[8] = substrate: CC(=O)Oc1ccc2c(C)cc(=O)oc2c1; assay: O-acetylesterase Michaelis-Menten kinetics; assay type: biochemical, Pseudomonas fluorescens; conditions: other: PfWssI^ΔN, acetyl donor substrate, pH 7
Experimental: as §3, §2, §4

T1 sequence (A0A6J5I893 entry or part of it, stated change not applied): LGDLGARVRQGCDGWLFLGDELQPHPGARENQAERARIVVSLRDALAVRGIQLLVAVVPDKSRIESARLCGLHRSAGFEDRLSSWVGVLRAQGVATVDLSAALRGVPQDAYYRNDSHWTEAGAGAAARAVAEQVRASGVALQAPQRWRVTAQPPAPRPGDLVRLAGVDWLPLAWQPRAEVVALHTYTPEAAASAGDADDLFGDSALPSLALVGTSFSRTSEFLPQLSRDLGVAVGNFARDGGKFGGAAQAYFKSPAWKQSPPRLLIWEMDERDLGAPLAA

CN1CCN(c2ccc(NC(=O)c3cc4sc(Nc5ccccc5)nc4s3)cn2)CC1 [Compound 4, N-[6-(4-Methylpiperazin-1-yl)pyridin-3-yl]-2-(phenylamino)thieno[2,3-days][1,3]thiazole-5-carboxamide]
IC50 (AiWssI^ΔN [1]): 55.3 µM

Cn1cccc1/C=C(/C#N)c1nnc(-c2ccccc2)n1C [Compound 3, (2Z)-3-(1-Methyl-1H-pyrrol-2-yl)-2-(4-methyl-5-phenyl-4H-1,2,4-triazol-3-yl)-prop-2-enenitrile]
IC50 (AiWssI^ΔN [1]): 85.3 µM
IC50 (AiWssI^ΔN [2]): 41.4 µM
Ki (AiWssI^ΔN [2]): 22.1 µM

CC(=O)Nc1ccc(S(=O)(=O)Nc2ccc([N+](=O)[O-])cc2)cc1 [Compound 7, N-{4-[(4-Nitrophenyl)sulfamoyl]phenyl}acetamide]
IC50 (AiWssI^ΔN [1]): 100 µM

CCOC(=O)NC(=O)/C(C#N)=C/c1ccc(N(C)C)cc1 [Compound 2, Ethyl N-[(2E)-2-cyano-2-{[4-(dimethylamino)-phenyl]methylidene}acetyl]carbamate]
IC50 (AiWssI^ΔN [1]): 60.2 µM
IC50 (AiWssI^ΔN [2]): 22.6 µM
Ki (AiWssI^ΔN [2]): 12 µM

OC[C@H]1O[C@@H](O[C@H]2[C@H](O)[C@@H](O)[C@H](O[C@H]3[C@H](O)[C@@H](O)[C@H](O[C@H]4[C@H](O)[C@@H](O)C(O)O[C@@H]4CO)O[C@@H]3CO)O[C@@H]2CO)[C@H](O)[C@@H](O)[C@@H]1O (some centres unmarked) [cellotetraose]
Specific activity of AiWssI^ΔN with acceptor relative to no acceptor control (AiWssI^ΔN [3]): Significant increases in activity

CN1/C(=C/C(=O)Cn2cc(S(=O)(=O)N3CCCC3)ccc2=O)C(C)(C)c2ccccc21 [Compound 6, 1-{2-Oxo-3-[(2E)-1,3,3-trimethyl-2,3-dihydro-1H-indol-2-ylidene]propyl}-5-(pyrrolidine-1-sulfonyl)-1,2-dihydropyridin-2-one]
IC50 (AiWssI^ΔN [1]): 71.9 µM

Cc1nc(N2CCCCC2)sc1/C=N/Nc1ccc(C(=O)O)cc1 [Compound 8, 4-[(2E)-2-{[4-Methyl-2-(piperidin-1-yl)-1,3-thiazol-5-yl]methylidene}hydrazin-1-yl]benzoic acid]
IC50 (AiWssI^ΔN [1]): 90.3 µM

O=C[C@H](O)[C@@H](O)[C@H](O[C@@H]1O[C@H](CO)[C@@H](O)[C@H](O)[C@H]1O)[C@H](O)CO [cellobiose]
Specific activity of AiWssI^ΔN with acceptor relative to no acceptor control (AiWssI^ΔN [3]): Significant increases in activity

AiWssI^ΔN (Achromobacter insuavis)
Km [4]: 3.85 ± 1.07 mM
kcat [4]: 0.031 ± 0.0035 s⁻¹
kcat/Km [4]: 8 M⁻¹ s⁻¹
Km [5]: 0.57 ± 0.24 mM
kcat [5]: 0.00258 ± 0.00028 s⁻¹
kcat/Km [5]: 4.5 M⁻¹ s⁻¹

OC[C@H]1O[C@@H](O[C@H]2[C@H](O)[C@@H](O)[C@H](O[C@H]3[C@H](O)[C@@H](O)[C@H](O[C@H]4[C@H](O)[C@@H](O)[C@H](O[C@H]5[C@H](O)[C@@H](O)C(O)O[C@@H]5CO)O[C@@H]4CO)O[C@@H]3CO)O[C@@H]2CO)[C@H](O)[C@@H](O)[C@@H]1O (some centres unmarked) [cellopentaose]
Increase in AiWssI^ΔN activity versus reaction without celloacceptors (AiWssI^ΔN [3]): 28%
Specific activity of AiWssI^ΔN with acceptor relative to no acceptor control (AiWssI^ΔN [3]): Significant increases in activity

O=C1NC(=O)c2ccccc2/C1=C\C=Cc1ccco1 [Compound 5, (4E)-4-[3-(Furan-2-yl)prop-2-en-1-ylidene]-1,2,3,4-tetrahydroisoquino-line-1,3-dione]
IC50 (AiWssI^ΔN [1]): 51.9 µM

OC[C@H]1O[C@@H](O[C@H]2[C@H](O)[C@@H](O)[C@H](O[C@H]3[C@H](O)[C@@H](O)[C@H](O[C@H]4[C@H](O)[C@@H](O)[C@H](O[C@H]5[C@H](O)[C@@H](O)[C@H](O[C@H]6[C@H](O)[C@@H](O)C(O)O[C@@H]6CO)O[C@@H]5CO)O[C@@H]4CO)O[C@@H]3CO)O[C@@H]2CO)[C@H](O)[C@@H](O)[C@@H]1O (some centres unmarked) [cellohexaose]
Increase in AiWssI^ΔN activity versus reaction without celloacceptors (AiWssI^ΔN [3]): 31%
Specific activity of AiWssI^ΔN with acceptor relative to no acceptor control (AiWssI^ΔN [3]): Significant increases in activity

O=S(=O)(F)Cc1ccccc1 [PMSF]
Residual activity AiWssI^ΔN (AiWssI^ΔN [6]): 106.3 ± 6.8%
Residual activity PfWssI^ΔN (PfWssI^ΔN): 103.2 ± 4.2%

OC[C@H]1O[C@@H](O[C@H]2[C@H](O)[C@@H](O)[C@H](O[C@H]3[C@H](O)[C@@H](O)C(O)O[C@@H]3CO)O[C@@H]2CO)[C@H](O)[C@@H](O)[C@@H]1O (some centres unmarked) [cellotriose]
Specific activity of AiWssI^ΔN with acceptor relative to no acceptor control (AiWssI^ΔN [3]): Significant increases in activity

B1: PfWssI^ΔN (Pseudomonas fluorescens) (protein)
chain: T2 sequence (Q8RSY4 92-374)
Km [7]: 2.41 ± 0.77 mM
kcat [7]: 0.0312 ± 0.0034 s⁻¹
kcat/Km [7]: 13 M⁻¹ s⁻¹
Km [8]: 0.34 ± 0.10 mM
kcat [8]: 0.00162 ± 0.00016 s⁻¹
kcat/Km [8]: 4.8 M⁻¹ s⁻¹
